Assay results reported in publication PMC11374673, “Discovery of isoquinoline sulfonamides as allosteric gyrase inhibitors with activity against fluoroquinolone-resistant bacteria” (Nature Chemistry, 2024).
In brackets after ≈: the same amount, converted by molar mass. Read-outs that look alike come from different tables or passages of the source.

Tests used:
[1] = tested on: E. coli W3110; assay: MIC by broth microdilution; assay type: cell-based, Escherichia coli; details: for antimicrobial activity: relative to parent compound
Procedure: (§1) MIC was determined by broth microdilution. Single-colony cultures were grown to exponential phase (OD600 of 0.5) aerobically at 37 °C. In case of strains from the Keio collection, 50 µg ml^−1 kanamycin was supplemented to the media to ascertain a homogeneous population. The bacterial suspensions were diluted 100-fold in CAMHB and 50 µl was added to a twofold serial dilution series of test compounds (50 µl per well) in polypropylene 96-well microtitre plates to reach a volume of 100 µl. The plates were sealed with breathable membranes and incubated overnight at 37 °C with constant shaking (600 r.p.m.).

[2] = tested on: E. coli BW25113; assay: Bacterial cytological profiling (BCP); assay type: cell-based, Escherichia coli; details: BCP
Procedure: Overnight E. coli BW25113 cultures were diluted 1:100 in fresh LB medium in a 100 ml Erlenmeyer flask and incubated at 120 r.p.m. and 37 °C. When OD600 >0.2, the cultures were diluted to OD600 of 0.1 in fresh LB medium with a final volume of 200 µl in a 2 ml Eppendorf tube. The appropriate antibiotic or control treatment was applied and the samples were incubated at 200 r.p.m. and 30 °C for 2 h. Subsequently, 4,6-diamidino-2-phenylindole (DAPI) (2 µg ml^−1), FM4-64 (2 µg ml^−1) and SYTOX Green (0.5 µM) were added to reach the desired concentration and the samples were incubated a further 10 min. The samples were then centrifuged at 3,300g for 50 s and the pellets resuspended in half the original volume. From this suspension, 5 µl was spotted onto a 2.0% agarose pad for microscopy.
Microscopy was performed on a Zeiss Axio Observer Z1/7 inverted microscope.
For the qualitative assessment of the bacterial morphology, the acquired images were first pre-processed in ImageJ (v1.53m)[47]. Thereafter the brightness and contrast were adjusted to allow the clearest visual inspection of the particular phenotype. For the quantitative BCP, DIC images were first pre-processed and then a random forest classifier was trained with Illastik (v1.3.3)[48] to generate a segmented image. These binary masks were then combined together with the original DIC image and processed with the ImageJ plugin MicrobeJ (v 5.13l)[49]. MicrobeJ generated cell outlines and performed measurements on cell shape accordingly. The recorded cell outlines produced by MicrobeJ were exported and used as a guide to characterize the DNA shape within each bacterium using a custom-made ImageJ macro (Appendix II). DAPI and SYTOX Green intensity were measured on raw images in a similar manner. Then, by hand, polygons were drawn that excluded bacteria to determine background intensity. After background correction the intensity was standardized to the DMSO control within the same biological replicate. For PCA, the BCP assay was executed for three independently biological replicates. During each experiment, images were acquired until 24 or more bacteria in total had been observed. Following feature extraction for each replicate, principal component analysis was performed using GraphPad Prism (v9.0.0) using multiple variable analysis with standardized data. Principal components (PCs) were selected based on the per cent of total explained variance (minimum 80%).

[3] = tested on: K. pneumoniae ATCC 29665; assay: MIC by broth microdilution; assay type: cell-based, Klebsiella pneumoniae; details: read-out: MIC K. pneumoniae ATCC 29665
Procedure: as §1

[4] = Escherichia coli, W3110, follow-up of the 12 library hits, read-out: MIC E. coli
[5] = Escherichia coli, W3110, WT, broth microdilution, read-out: MIC E. coli W3110
[6] = Klebsiella pneumoniae, ATCC29665, broth microdilution
[7] = WT, broth microdilution, read-out: MIC E. coli W3110

`Nc1ccc2c(N3CCC(COc4ccccn4)CC3)ncnc2n1` [AJ358] showed an MIC [1, 4] greater than 50 µM.

With `CC1(C)S[C@@H]2[C@H](NC(=O)[C@H](N)c3ccccc3)C(=O)N2[C@H]1C(=O)O` [AMP, ampicillin, reference compound] the DAPI circularity [2] was 0.173 ± 0.043, the DAPI nucleoid area [2] was 9.445 ± 2.853 and the DAPI nucleoids [2] was 2.583 ± 0.910. For the same molecule, the DAPI perimeter [2] was 30.886 ± 6.792, the DAPI roundness [2] was 0.108 ± 0.020 and the DAPI solidity [2] was 0.603 ± 0.036. The DAPI total area [2] was 19.710 ± 4.300, the DIC area [2] was 31.597 ± 3.284 and the DIC circularity [2] was 0.144 ± 0.015. It also gave a DIC curvature [2] of 0.024 ± 0.004, a DIC feret [2] of 26.883 ± 3.012 and a DIC length [2] of 27.774 ± 3.16. It also gave a DIC perimeter [2] of 56.849 ± 6.297, a DIC roundness [2] of 0.066 ± 0.008 and a DIC sinuosity [2] of 1.033 ± 0.002. The DIC solidity [2] was 0.538 ± 0.044, the DIC width [2] was 1.143 ± 0.051 and the Decondensation [2] was 0.619 ± 0.078. For the same molecule, the DIC angularity ([2]; 2 h, AMP 12.5, RIF 12.5, TET 6.25, CIP 0.0625, LEI-801 6.25, LEI-800 6.25 µM, average ± SD of 3 replicates) was 0.069 ± 0.009, the DAPI intensity ([2]; standardized to DMSO control) was 1.490 ± 0.410 and the “SYTOX Green intensity” value ([2]; standardized to DMSO control) was 1.901 ± 0.246.

In the case of `Nc1ccccc1S(=O)(=O)NCCNC/C=C/c1ccc(-c2cccnc2)cc1` [BB064], the MIC [1, 4] is reported as greater than 50 µM.

`O=S(=O)(NCCNCCc1ccc(-c2cccnc2)cc1)c1cccc2cnccc12` [BB077] was tested, and the MIC [1, 4] was greater than 50 µM.

`O=S(=O)(NCCNCc1ccc(-c2cccnc2)cc1)c1cccc2ccccc12` [Compound 47] was tested, and the MIC [1, 5] was 25 µM (≈ 10.4 µg/mL), the “antimicrobial activity” value [1] was “fourfold reduced activity” and the MIC [3, 6] was greater than 50 µM. It also gave an MIC ([3]; broth microdilution) of 50 µM (≈ 20.9 µg/mL).

`O=S(=O)(NCCNCc1ccc(-c2cccnc2)cc1)c1ccccc1` [Compound 48] was tested, and the MIC [1, 5] was greater than 50 µM, the MIC [1, 7] was greater than 50 µM and the “antimicrobial activity” value [1] was “lost all activity”. It also gave an MIC [3, 6] greater than 50 µM and an MIC ([3]; broth microdilution) greater than 50 µM.

`O=S(=O)(NCCNCc1ccc(-c2cccnc2)cc1)c1cccc2[nH]ncc12` [Compound 49] gave an MIC [1, 5] greater than 50 µM, an MIC [1, 7] greater than 50 µM and an MIC [3, 6] greater than 50 µM. It also gave an MIC ([3]; broth microdilution) greater than 50 µM.

`O=S(=O)(NCCNCc1ccc(-c2cccnc2)cc1)c1ccc2cn[nH]c2c1` [Compound 50] showed an MIC [1, 5] greater than 50 µM, an MIC [1, 7] greater than 50 µM and an MIC [3, 6] greater than 50 µM. For the same molecule, the MIC ([3]; broth microdilution) was greater than 50 µM.

`CNC(=O)c1ccc(S(=O)(=O)NCCNCc2ccc(-c3cccnc3)cc2)cn1` [Compound 51] gave an MIC [1, 5] greater than 50 µM, an MIC [1, 7] greater than 50 µM and an MIC [3, 6] greater than 50 µM. The MIC ([3]; broth microdilution) was greater than 50 µM.

With `O=S(=O)(NCCNCc1ccc(-c2cccnc2)cc1)c1ccnc2[nH]ccc12` [Compound 54] the MIC [1, 5] was greater than 50 µM, the MIC [1, 7] was greater than 50 µM and the MIC [3, 6] was greater than 50 µM. For the same molecule, the MIC ([3]; broth microdilution) was greater than 50 µM.

In the case of `Nc1cc2c(S(=O)(=O)NCCNCc3ccc(-c4cccnc4)cc3)cccc2cn1` [Compound 55], the MIC [1, 5] is reported as greater than 50 µM, the MIC [1, 7] is reported as greater than 50 µM and the MIC [3, 6] is reported as greater than 50 µM. The MIC ([3]; broth microdilution) was greater than 50 µM.

`Cc1ccc(-c2ccc(CNCCNS(=O)(=O)c3cccc4cnccc34)cc2)cc1` [Compound 62] was tested, and the MIC [1, 5] was greater than 50 µM, the MIC [1, 7] was greater than 50 µM and the MIC [3, 6] was greater than 50 µM. The MIC ([3]; broth microdilution) was greater than 50 µM.

Molecule `O=S(=O)(NCCNCc1ccc(-c2ccc(C(F)(F)F)cc2)cc1)c1cccc2cnccc12` [Compound 64] has an MIC [1, 5] greater than 50 µM, an MIC [1, 7] greater than 50 µM and an MIC [3, 6] greater than 50 µM. The MIC ([3]; broth microdilution) was greater than 50 µM.

Work on `O=S(=O)(NCCNCc1ccc(-c2ccncc2)cc1)c1cccc2cnccc12` [Compound 65] yielded an MIC [1, 5] of 12.5 µM (≈ 5.23 µg/mL) and an MIC [3, 6] of 25 µM (≈ 10.5 µg/mL).

`O=S(=O)(NCCNCc1ccc(-c2cccc(F)c2)cc1)c1cccc2cnccc12` [Compound 66] showed an MIC [1, 5] of 12.5 µM (≈ 5.44 µg/mL) and an MIC [3, 6] of 25 µM (≈ 10.9 µg/mL).

For `Cc1cccc(-c2ccc(CNCCNS(=O)(=O)c3cccc4cnccc34)cc2)c1` [Compound 67], the MIC [1, 5] was greater than 50 µM, the MIC [1, 7] was greater than 50 µM and the MIC [3, 6] was greater than 50 µM. For the same molecule, the MIC ([3]; broth microdilution) was greater than 50 µM.

`N#Cc1cccc(-c2ccc(CNCCNS(=O)(=O)c3cccc4cnccc34)cc2)c1` [Compound 68] showed an MIC [1, 5] of 12.5 µM (≈ 5.53 µg/mL) and an MIC [3, 6] of 25 µM (≈ 11.1 µg/mL).

`O=S(=O)(NCCNCc1ccc(-c2cccc(C(F)(F)F)c2)cc1)c1cccc2cnccc12` [Compound 69] gave an MIC [1, 5] of 25 µM (≈ 12.1 µg/mL), an MIC [3, 6] greater than 50 µM and an MIC ([3]; broth microdilution) greater than 50 µM.
